Data taken from patent publication US20190247353A1, “ACNE STRAIN-SELECTIVE ANTIBACTERIAL AGENT” (MOMOTANI JUNTENKAN CO., LTD., priority 2016, published 2019).
≈ marks a conversion by molar mass, not a printed value. Read-outs that look alike come from different tables or passages of the source.

Tests used:
Type in all cases: cell-based, Propionibacterium acnes
[1] = test system: HL053PA1 strain (RT4); assay: MIC by broth microdilution method, HL053PA1 strain; settings: for MIC: Cutibacterium acnes, read-out: MIC against acne bacterium strain HL053PA1 strain (RT4)
Method: (§1) An MIC is measured herein according to the broth microdilution method which is the standard method of Japanese Society of Chemotherapy.
(§2) The antibacterial activity of a test substance was determined based on the minimum inhibitory concentration (MIC). An MIC was measured according to the broth microdilution method which is the standard method of Japanese Society of Chemotherapy.
(§3) One-loopful of each acne bacterium strain listed in Table 1 was scraped off and inoculated into 5 mL of a GAM broth slant agar medium (pH 7.0, Nissui Pharmaceutical Co., Ltd.).
(§4) The inoculated acne bacterium strain was precultured at 37° C. in a nitrogen atmosphere (anaerobic condition) for 48 hours. The precultured microbial cells were diluted in a modified GAM broth liquid medium (pH 6.0) to a concentration of 5.0×10^4 cfu/mL (viable cell count per OD660=1 is 2.0×10^9 cfu/mL), to prepare strain suspensions.
(§5) Each fatty acid (Tokyo Chemical Industry Co., Ltd.) listed in Table 2 was dissolved in dimethylsulfoxide (DMSO) as a solvent such that the concentration became 10,000 μg/mL, and used as a test substance.
(§6) Each of strain suspensions (5.0×10^4 cfu/mL) was aliquoted in a 96-well round bottom microplate, each of the test substance (fatty acid concentration 10,000 μg/mL) was added at a 1/10 volume to the aliquot and mixed to prepare measurement samples (fatty acid concentration: 1,000 μg/mL). Measurement samples in 2-fold dilution series were prepared using the strain suspension (fatty acid concentration from 0.48 to 1,000 μg/mL).
(§7) […] The presence or absence of a precipitation of test microbial cells after the incubation was examined and the minimum concentration at which the precipitation of microbial cells […] was regarded as the MIC (μg/mL) of the test substance against the acne bacterium strain.

[2] = test system: HL043PA1 strain (RT5); assay: MIC by broth microdilution method, HL043PA1 strain; settings: for MIC: Cutibacterium acnes, read-out: MIC against acne bacterium strain HL043PA1 strain (RT5)
Method: as §1, §2, §3
The inoculated acne bacterium strain was precultured at 37° C. in a nitrogen atmosphere (anaerobic condition) for 48 hours. […]
as §5, §6
The measurement samples were incubated under an anaerobic condition at 37° C. for 2 days. The presence or absence of a precipitation of test microbial cells after the incubation was examined and the minimum concentration at which the precipitation of microbial cells […] was regarded as the MIC (μg/mL) of the test substance against the acne bacterium strain.

[3] = test system: HL053PA1 strain (RT4) and HL043PA1 strain (RT5) versus HL110PA3 strain (RT6); assay: Strain-selective antibacterial activity (average of MICRT6/MICRT4 and MICRT6/MICRT5)
Text: Herein, “acne strain-selective antibacterial activity” or “strain-selective antibacterial activity” means an index indicating better inhibition of growth of a dominant strain in acne patients compared to that of a dominant strain in healthy subjects. It is expressed by the average value of the values (MICRT6/MICRT4, and MICRT6/MICRTS) obtained by dividing the minimum inhibitory concentration (MIC) of an object substance with respect to the dominant strain in healthy subjects (RT6 strain) (MICRT6) respectively by the MIC of the object substance with respect to the dominant strain in acne patients (RT4 strain) (MICRT4), and by the MIC of the object substance with respect to the dominant strain in acne patients (RT5 strain) (MICRT5).
The strain-selective antibacterial activity of each test substance (Table 2, right-most column) was evaluated based on the following rating criteria (Table 3). When the strain-selective antibacterial activity is indicated by a numerical range, the rating was based on the minimum value thereof.

[4] = test system: HL110PA3 strain (RT6); assay: MIC by broth microdilution method, HL110PA3 strain; settings: Cutibacterium acnes; control antibacterial agents, Comparative Example 1, method as Example 1; read-out: MIC against acne bacterium strain HL110PA3 strain (RT6)
[5] = test system: HL110PA3 strain (RT6); assay: MIC by broth microdilution method, HL110PA3 strain; settings: for MIC: Cutibacterium acnes, read-out: MIC against acne bacterium strain HL110PA3 strain (RT6)
Method: as §1, §2, §3, §4, §5, §6, §7

[6] = control antibacterial agents, Comparative Example 1, method as Example 1
[7] = control antibacterial agents, Comparative Example 1
[8] = 48 h, pH 6.0 modified GAM broth, anaerobic, 37° C., 2 days (Example 1)
[9] = 72 h, pH 5.0, estimated from the growth on day 3
[10] = monoacylglycerols, Example 3, method as Example 1

CCO [Ethanol, reference compound]
MIC [1, 6]: > 1000 µg/mL
MIC [2, 6]: 500 µg/mL (≈ 10900 µM)
Strain-selective antibacterial activity [3, 7]: <0.75
MIC [4]: 500 µg/mL (≈ 10900 µM)

Oc1cc(Cl)ccc1Oc1ccc(Cl)cc1Cl [Triclosan, reference compound]
MIC [1]: 0.975 µg/mL (≈ 3.37 µM)
MIC [2]: 1.95 µg/mL (≈ 6.73 µM)
MIC [5]: 3.9 µg/mL (≈ 13.5 µM)
Strain-selective antibacterial activity [3, 7]: 3.0

Cc1cc(O)ccc1C(C)C [reference compound]
MIC against acne bacterium strain HL053PA1 strain (RT4) [1, 6]: 125 µg/mL (≈ 832 µM)
MIC against acne bacterium strain HL043PA1 strain (RT5) [2, 6]: 125 µg/mL (≈ 832 µM)
MIC against acne bacterium strain HL110PA3 strain (RT6) [5, 6]: 62.5 µg/mL (≈ 416 µM)
Strain-selective antibacterial activity [3, 7]: 0.50

CCCCCCCCCCCCCCCCCC(=O)O [Stearic acid (C18:0), Stearic acid]
MIC [1, 8]: > 1000 µg/mL
MIC [1, 9]: > 1000 µg/mL
MIC ([1]; pH 5.5): > 1000 µg/mL
MIC ([1]; pH 6.5): > 1000 µg/mL
MIC ([1]; pH 7.0): 62.5 µg/mL (≈ 220 µM)
MIC [2, 8]: > 1000 µg/mL
MIC [2, 9]: > 1000 µg/mL
MIC ([2]; pH 6.5): > 1000 µg/mL
MIC ([2]; pH 7.0): 31.3 µg/mL (≈ 110 µM)
MIC [5, 8]: > 1000 µg/mL
MIC ([5]; 72 h, pH 5.5, estimated from the growth on day 3): > 1000 µg/mL
MIC ([5]; 96 h, pH 5.0, estimated from the growth on day 4): > 1000 µg/mL
MIC ([5]; pH 6.5): > 1000 µg/mL
MIC ([5]; pH 7.0): 1000 µg/mL (≈ 3520 µM)
Strain-selective antibacterial activity ([3]; pH 7.0): 24
Strain-selective antibacterial activity at each pH ([3]; pH 7 (summary Table 10)): 24

CCCCCCCCC(=O)O [Nonanoic acid (C9:0), Nonanoic acid, reference compound]
MIC [1, 8]: 500 µg/mL (≈ 3160 µM)
MIC [2, 8]: 250 µg/mL (≈ 1580 µM)
MIC [5, 8]: 250 µg/mL (≈ 1580 µM)
Strain-selective antibacterial activity ([3]; pH 6.0 (Example 1)): 0.75

CCCCCCCC(=O)O [Caprylic acid (C8:0), Caprylic acid, reference compound]
MIC [1, 8]: 250 µg/mL (≈ 1730 µM)
MIC [2, 8]: 250 µg/mL (≈ 1730 µM)
MIC [5, 8]: 125 µg/mL (≈ 867 µM)
Strain-selective antibacterial activity ([3]; pH 6.0 (Example 1)): 0.50

CCCCCCCCCCCCCCCC(=O)OCC(O)CO (stereo not drawn) [Monopalmitin]
MIC against acne bacterium strain HL053PA1 strain (RT4) [1, 10]: 250 µg/mL (≈ 756 µM)
MIC against acne bacterium strain HL043PA1 strain (RT5) [2, 10]: 31.3 µg/mL (≈ 94.7 µM)
MIC against acne bacterium strain HL110PA3 strain (RT6) [5, 10]: 1000 µg/mL (≈ 3030 µM)
Strain-selective antibacterial activity ([3]; monoacylglycerols, Example 3): 18

CCCCCCCCCCC(=O)O [Undecanoic acid (C11:0), Undecanoic acid, reference compound]
MIC [1, 8]: 15.6 µg/mL (≈ 83.7 µM)
MIC [2, 8]: 15.6 µg/mL (≈ 83.7 µM)
MIC [5, 8]: 15.6 µg/mL (≈ 83.7 µM)
Strain-selective antibacterial activity ([3]; pH 6.0 (Example 1)): 1.0

CCCCCCCCCCCCC(=O)O [Tridecanoic acid (C13:0), Tridecanoic acid, reference compound]
MIC [1, 8]: 15.6 µg/mL (≈ 72.8 µM)
MIC [2, 8]: 31.3 µg/mL (≈ 146 µM)
MIC [5, 8]: 15.6 µg/mL (≈ 72.8 µM)
Strain-selective antibacterial activity ([3]; pH 6.0 (Example 1)): 0.75
